Patent publication US20100029554A1, “Composition and Methods for Treatment of Congestive Heart Failure” (Amylin Pharmaceuticals, Inc., priority 2006, published 2010)
Where no end group is shown, it is not given here.

How the values were obtained:
[1] = biological target: T1, GLP-1 receptors (RINm5f cell membranes) (Rattus norvegicus, UniProt P32301); assay: Receptor binding assay, RBA GLP (RIN); conditions: [125I] human GLP-1 displacement
T1 construct: RINm5f cells expressing endogenous GLP-1 receptors; endogenous in cells; host or cells: RINm5f cell membranes
T1 sequence (P32301 22-463): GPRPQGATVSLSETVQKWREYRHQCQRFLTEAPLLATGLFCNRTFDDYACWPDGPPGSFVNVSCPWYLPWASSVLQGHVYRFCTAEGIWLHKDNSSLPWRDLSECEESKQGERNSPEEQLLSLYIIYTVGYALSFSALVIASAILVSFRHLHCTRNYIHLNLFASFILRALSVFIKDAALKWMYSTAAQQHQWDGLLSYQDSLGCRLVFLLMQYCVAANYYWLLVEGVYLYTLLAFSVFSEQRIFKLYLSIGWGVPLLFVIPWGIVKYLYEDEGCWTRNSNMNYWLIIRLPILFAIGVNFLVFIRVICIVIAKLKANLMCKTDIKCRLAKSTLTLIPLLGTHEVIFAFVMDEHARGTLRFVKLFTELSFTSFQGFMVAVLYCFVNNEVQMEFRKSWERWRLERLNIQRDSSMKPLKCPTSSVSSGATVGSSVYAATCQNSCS
Text: The well contents are harvested onto 96 well glass fiber plates using a Perkin Elmer plate harvestor. Dried glass fiber plates are combined with scintillant and counted on a Perkin Elmer scintillation counter.

NH/Swiss mice = assay: Glucose lowering assay; format: in vivo, mouse; conditions: IP
Method in brief: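 Female NH/Swiss mice, food-restricted 2 h beforehand, received test sample IP at 1 or 2 nmol/kg or vehicle (10% DMSO saline). Tail blood glucose (glucose oxidase biosensor) was measured pre-dose and at 30-240 min, expressed as percent change versus vehicle; ANOVA with Dunnett's post test.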

NIH:Swiss mice = assay: Food intake assay; format: in vivo, mouse; conditions: IP, dose 10 nmol/kg
Method: All mice (NIH:Swiss mice) are housed in a stable environment of 22 (±2)° C., 60 (±10)% humidity and a 12:12 light:dark cycle; with lights on at 0300. Mice are housed in groups of three in standard cages with ad libitum access to food (Teklad: LM 485; Madison, Wis.) and water except as noted, for at least two weeks before the experiments.
All experiments are conducted between the hours of 0700 and 0900. The mice are food deprived (food removed at 1530 hr from all animals on day prior to experiment). […] The food pellet is weighed at 30-minute, 1-hr, and 2-hr intervals to determine the amount of food eaten.
Significant test sample effects are identified by ANOVA (p<0.05). Where a significicant difference exists, test means are compared to the control mean using Dunnett's test. One-way ANOVA with Dunnett's post test is performed using GraphPad Prism version 3.01 for Windows, GraphPad Software, San Diego Calif.

Plasma stability = format: in vitro ADME; conditions: 20 μg/mL in plasma, 37° C., 0-5 hours
Method in brief: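 Compound spiked into plasma at 20 μg/mL and incubated at 37° C for 0–5 h in triplicate. Each time point quenched with MeOH (1 part sample to 4 parts MeOH) and centrifuged. Remaining compound measured by LC-MS.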

[2] = test system: GLP/GIP/CT cyclase, RIN-m5F cells; assay: GLP/GIP/CT Cyclase (RIN) assay; format: cell-based, rat; conditions: cAMP, values without **
Method in brief: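 RIN-m5F rat insulinoma cells (2.5×10^4 per well) stimulated with serially diluted peptides for 30 min at room temperature in the dark. Lysed 4 h at room temperature; cAMP measured by AlphaScreen.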

[3] = test system: GLP-1 cyclase, rat thyroid carcinoma cells (6-23); assay: GLP-1 Cyclase (6-23) assay; format: cell-based; conditions: cAMP, 6-23 cells; values marked **
Method: Five μl of serially diluted peptides are transferred to the 384-well assay plate. Rat thyroid carcinoma cells (6-23) are detached from a tissue culture flask with Versene and washed once in buffer. Then 6-23 cells are resusupended in buffer at 3.0×10^6 cells/ml. Then 10 μl cells (3.0×10^4 cells) are added to all wells of the assay plate and cells are stimulated at room temperature in the dark for 30 minutes. The reaction is terminated with 10 μl of lysis buffer and incubated at room temperature for 4 hrs in the dark. cAMP content is measured using Perkin Elmer AlphaScreen™ cAMP assay kit and results are read on a Perkin Elmer Fusion fluorometer. The assay is completed in 384-well plates at 25 μl volumes.

Row | Molecule | IC50 [1] | GLU LOWERING AUC240 @1 nmol/kg (NH/Swiss mice; 1 nmol/kg) | FOOD INTAKE at 60 min (NIH:Swiss mice) | plasma stability as compared to native GLP-1 (Plasma stability) | EC50 [2] | EC50 [3] | GLU LOWERING AUC240 @2 nmol/kg (NH/Swiss mice; 2 nmol/kg, change in blood glucose relative to vehicle)
1 | CC[C@H](C)[C@H](NC(=O)[C@H](Cc1ccccc1)NC(=O)[C@H](CCC(=O)O)NC(=O)[C@H](CCCCN)NC(=O)[C@H](C)NC(=O)[C@H](C)NC(=O)[C@H](CCCCN)NC(=O)[C@H](CCC(=O)O)NC(=O)[C@H](CCC(=O)O)NC(=O)[C@H](CC(C)C)NC(=O)[C@H](CCC(N)=O)NC(=O)[C@H](CCCCN)NC(=O)[C@H](CO)NC(=O)[C@H](CC(C)C)NC(=O)[C@H](CC(=O)O)NC(=O)[C@H](CO)NC(=O)[C@@H](NC(=O)[C@H](Cc1ccccc1)NC(=O)[C@@H](NC(=O)CNC(=O)[C@H](CCC(=O)O)NC(=O)CNC(=O)[C@@H](N)Cc1c[nH]cn1)[C@@H](C)O)[C@@H](C)O)C(=O)N[C@@H](CCC(=O)O)C(=O)N[C@@H](Cc1c[nH]c2ccccc12)C(=O)N[C@@H](CC(C)C)C(=O)N[C@@H](CCCCN)C(=O)N[C@@H](CCC(N)=O)C(=O)NCC(=O)NCC(=O)N1CCC[C@H]1C(=O)N[C@@H](CO)C(=O)N[C@@H](CO)C(=O)NCC(=O)N[C@@H](C)C(=O)N1CCC[C@H]1C(=O)N1CCC[C@H]1C(=O)N1CCC[C@H]1C(=O)N[C@@H](CO)C(N)=O [Cmpd 5100] | 1.8 nM | −16% | −66% | increased plasma stability |  |  | 
2 | CC[C@H](C)[C@H](NC(=O)[C@H](Cc1ccccc1)NC(=O)[C@H](CC(C)C)NC(=O)[C@H](CCCNC(=N)N)NC(=O)[C@@H](NC(=O)[C@H](C)NC(=O)[C@H](CCC(=O)O)NC(=O)[C@H](CCC(=O)O)NC(=O)[C@H](CCC(=O)O)NC(=O)[C@H](CC(C)C)NC(=O)[C@H](Cc1ccc(O)cc1)NC(=O)[C@H](CCC(=O)O)NC(=O)[C@@H](NC(=O)[C@@H](NC(=O)[C@H](CC(=O)O)NC(=O)[C@H](CC(N)=O)NC(=O)[C@@H](NC(=O)[C@H](Cc1ccc(O)cc1)NC(=O)[C@@H](NC(=O)CNC(=O)[C@H](CCC(=O)O)NC(=O)CNC(=O)[C@@H](N)Cc1c[nH]cn1)[C@@H](C)O)[C@@H](C)O)C(C)C)[C@@H](C)O)C(C)C)C(=O)N[C@@H](CCC(=O)O)C(=O)N[C@@H](Cc1c[nH]c2ccccc12)C(=O)N[C@@H](CC(C)C)C(=O)N[C@@H](CCCCN)C(=O)N[C@@H](CCC(N)=O)C(=O)NCC(=O)NCC(=O)N1CCC[C@H]1C(=O)N[C@@H](CO)C(=O)N[C@@H](CO)C(=O)NCC(=O)N[C@@H](C)C(=O)N1CCC[C@H]1C(=O)N1CCC[C@H]1C(=O)N1CCC[C@H]1C(=O)N[C@@H](CO)C(N)=O [Cmpd 5130] |  |  |  | increased plasma stability | 0.89 nM | 0.0544 nM | −22%
3 | HGEGTFTSDLVKILEAEAVRKFIEFLKNGGPSSGAPPPS-NH2 [Cmpd 5529] |  |  |  |  |  | 0.388 nM | 
